These results are taken from patent US20210113522A1, “COUMARIN DERIVATIVE AS ANTI-ASTHMATIC AGENT, PHARMACEUTICAL COMPOSITION THEREOF, ITS PREPARATION AND USE” (I-NOVA MEDICINSKA ISTRAZIVANJA D.O.O., priority 2017, published 2021).

Assay [1] concerns OVA-induced airway inflammation. Nature of the assay: OVA model of lung eosinophilia: differential cell count of bronchoalveolar lavage (BAL) cells. In kind it is in vivo, Balb/c mice. The note with it: vs PBS-treated OVA mice; 1 2 mg/kg preventively or therapeutically, beclomethasone 1 mg/kg, via the airway. Here is the method:
The study was performed on female 8-week old Balb/c mice. The animals were kept under specific-pathogen-free (SPF) conditions with temperature control and HEPA system for breeding of laboratory animals. Experiments were performed during the light phase of the cycle. 40 mice (n=10/group) were separated into 4 groups:
Group 1: OVA only Group 2: OVA+BECLOMETHASONE (1 mg/kg) Group 3: OVA+Compound 1 (preventively; 2 mg/kg) Group 4: OVA+Compound 1 (therapeutically; 2 mg/kg)
Each group of mice was sensitized on days 0 and 14 with 20 μg/mouse of OVA adsorbed on 2 mg alum. On days 20, 21 and 22 the animals were stimulated with 100 μg/mouse OVA intranasally in a final volume of 50 μL/mouse.
The first group (the positive control) was injected with 0.1 M phosphate-buffered saline (PBS) only.
The second and third groups were treated preventively with compound 1 (2 mg/kg) or beclomethasone (1 mg/kg) on days 18-22 via the airway.
The fourth group was treated therapeutically with compound 1 (2 mg/kg) on days 23-25 via the airway.
We examined the effect of compound 1 treatment in the cell response on OVA-induced airway inflammation. OVA (100 μg/50 μL of PBS) was introduced intranasally (i.n.) 6 days after the second intraperitoneal (i.p.) sensitization with OVA. The treatment with compound 1 (preventively and therapeutically), beclomethasone or PBS only was performed according the treatment schedule; see FIG. 2.
Two days after the last i.n. challenge, BAL cells were collected, and differential cell counts were performed to identify the number of various infiltrating inflammatory cells, see FIGS. 3A, 3B.
Female 8-week old Balb/c mice were obtained from Harlan Farm (Blackthorn, UK). The animals were kept under specific-pathogen-free (SPF) conditions with temperature control and HEPA system for breeding of laboratory animals. The manipulations were approved by the Animal Care Commission at the Institute of Microbiology in accordance with the International regulations (EU Directive 2010/63/EU).
Experiments were performed during the light phase of the cycle. The animals were allowed to adapt to the laboratory for at least 1 h before testing and were used only once. 40 mice (n=10/group) were separated into 4 groups:
Group 1: OVA only Group 2: OVA+beclomethasone (1 mg/kg) Group 3: OVA+compound 1 (preventively; 2 mg/kg) Group 4: OVA+compound 1 (therapeutically; 2 mg/kg)
The experimental procedure was carried out as described in literature reference 22. The procedure is as follows: • (1) using scissors, a small incision in the neck skin on the trachea was made and the skin upwards was opened to expose the salivary glands; the trachea was exposed; • (2) a small semi-excision of the trachea was made to allow a 21-G lavage tube to pass into the trachea; • (3) collection of the lavage fluid—0.5 mL of sterile PBS was injected into the lung. The saline from the first lavage was aspirate; the procedure was repeated 5 times; • (4) all lavages were pooled and were centrifuge for 5 min. at 300×g/4° C. to pellet the cells; the supernatant was discarded; • (5) the pellet was re-suspended in 1.5 mL ice cold PBS and centrifuge for 5 min. at 300×g/4° C.; the supernatant was discarded; • (6) the pellet was re-suspended in 1.0 mL ice cold PBS and the cells were counted; • (7) 50 000 cells were placed on the slide for cytospin; • (8) the cytrospin was performed for 10 min at 700 rpm; and • (9) the slides were air-dried and proceeded to cell staining.
(§1) • (1) fix in Solution A (fixative); • (2) dip 5 times in Solution C (red); • (3) dip 5 times in Solution B (blue); • (4) rinse the slides in distilled water; • (5) air-drying of the slides; • (6) mounted the cover slides; and then • (7) 400 cells were counted under light microscopy. Histology Staining was then Performed as Follows: The lungs from all animals were fixed in 10% formalin (pH 7.4). […]

Assay [2] has the same test system. The assay can be described thus: OVA model: lung histology (haematoxylin/eosin). In kind it is in vivo, Balb/c mice. The note with it: OVA-challenged mice; 1 2 mg/kg preventively or therapeutically, beclomethasone 1 mg/kg. Here is the method:
Lungs from the Balb/c mice from the test-groups were isolated and fixed in 10% formalin with […] of the same solution introduced intratracheally prior the overnight fixation. Paraffin sections from the lungs were analyzed using a standard haematoxylin/eosin staining technique.
as §1, with “7.4). Once fixed, tissue is processed as follows: • (1) 70% ethanol for 1 hour; • (2) 80% ethanol for 1 hour; • (3) 95% ethanol for 1 hour; • (4) first absolute ethanol for 1 hour; • (5) second absolute ethanol 1 hour; • (6) first clearing agent (xylene) for 1 hour; • (7) second clearing agent (xylene) for 1 hour; • (8) first wax at 58° C. for 1 hour; • (9) second wax at 58° C. for 1 hour; and • (10) embedding tissues in paraffin blocks. Tissues were sectioned using a microtome at 5 μm slices.” for “7.4).”

On to `O=c1oc2cc(O)cc(O)c2c(O)c1-c1coc2c1c(=O)oc1cc(O)cc(O)c12` [Compound 1, 7,9-dihydroxy-3-(4,5,7-trihydroxy-2-oxo-2H-chromene-3-yl)-4H-furo[3,2-c]chromen-4-one], for which, in assay [1], the “Eosinophil infiltration into the lungs (BAL)” value is given as “strongly suppressed”, the “Lymphocyte infiltration (BAL)” value is “stimulate”, the “Macrophages infiltration (BAL)” value is on record as “stimulate” and the “Neutrophil infiltration (BAL)” value is reported as “stimulate”. In addition, the “Eosinophil and other inflammatory cell infiltration in lung histology” value in assay [2] was “not observed”.
On to `C[C@H]1C[C@H]2[C@@H]3CCC4=CC(=O)C=C[C@]4(C)[C@@]3(Cl)[C@@H](O)C[C@]2(C)[C@@]1(O)C(=O)CO` [beclomethasone, reference compound], for which, in assay [1], the “Eosinophil infiltration into the lungs (BAL)” value was “suppressed”, the “Lymphocyte infiltration (BAL)” value is listed as “induced moderate”, the “Macrophages infiltration (BAL)” value was “induced moderate” and the “Neutrophil infiltration (BAL)” value is “suppressed”. Besides, the “Eosinophil and other inflammatory cell infiltration in lung histology” value in assay [2] was “not observed”.
